Experimental data: ChEMBL document CHEMBL1201862, “PubChem BioAssay data set” (2004)
Active and inactive are the calls of the source.

Tests used:
[1] = target: Eukaryotic translation initiation factor 4E (Mus musculus, UniProt P63073); test: eIF4E–eIF4G protein interaction inhibitors, dose response, biochemical, TR-FRET (AID 855); assay type: functional;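 further: potency for disrupting eIF4E binding to eIF4GI seen as loss of FRET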
[2] = target: Luciferin 4-monooxygenase (Photinus pyralis, UniProt P08659); test: firefly luciferase enzyme inhibitors, dose response, biochemical, luminescence (AID 1891)
Luciferin 4-monooxygenase, sequence (P08659 whole entry): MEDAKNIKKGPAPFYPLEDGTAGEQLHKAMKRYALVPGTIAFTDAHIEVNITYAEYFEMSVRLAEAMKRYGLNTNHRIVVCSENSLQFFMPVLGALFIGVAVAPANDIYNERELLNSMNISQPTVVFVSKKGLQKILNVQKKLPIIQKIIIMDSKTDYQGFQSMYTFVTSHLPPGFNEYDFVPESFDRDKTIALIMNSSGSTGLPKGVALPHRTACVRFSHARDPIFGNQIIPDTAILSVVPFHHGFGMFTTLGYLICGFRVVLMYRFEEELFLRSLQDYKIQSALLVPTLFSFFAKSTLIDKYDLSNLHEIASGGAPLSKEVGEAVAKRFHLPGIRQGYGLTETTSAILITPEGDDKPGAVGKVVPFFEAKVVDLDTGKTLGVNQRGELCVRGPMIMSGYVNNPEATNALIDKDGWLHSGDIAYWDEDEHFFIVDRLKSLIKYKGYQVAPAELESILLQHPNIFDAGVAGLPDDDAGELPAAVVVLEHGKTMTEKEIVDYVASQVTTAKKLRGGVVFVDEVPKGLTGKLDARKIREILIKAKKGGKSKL

[3] = Luminescence Cell-Based Dose Confirmation HTS to Identify Inhibitors of Platelet Dense Granule Release. [Related pubchem assays: 1663 (Primary HTS), 1678 (Summary of Project)]; assay type: functional
[4] = target: Induced myeloid leukemia cell differentiation protein Mcl-1 (Homo sapiens, UniProt Q07820); assay type: functional
Induced myeloid leukemia cell differentiation protein Mcl-1, sequence (Q07820 whole entry): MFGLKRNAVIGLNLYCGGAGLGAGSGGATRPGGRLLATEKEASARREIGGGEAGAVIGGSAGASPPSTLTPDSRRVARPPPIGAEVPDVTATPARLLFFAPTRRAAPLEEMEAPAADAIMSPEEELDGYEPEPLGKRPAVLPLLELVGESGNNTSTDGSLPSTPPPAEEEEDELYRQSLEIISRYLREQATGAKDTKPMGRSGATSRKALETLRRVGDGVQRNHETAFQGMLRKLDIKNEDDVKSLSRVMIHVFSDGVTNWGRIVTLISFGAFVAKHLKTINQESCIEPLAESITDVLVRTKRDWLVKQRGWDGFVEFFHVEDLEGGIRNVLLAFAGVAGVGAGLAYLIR

cells = assay type: functional
[5] = target: T1, Carboxy-terminal domain RNA polymerase II polypeptide A small phosphatase 1 (Homo sapiens, UniProt Q9GZU7); test: inhibitors of CTDSP1, concentration-response testing, biochemical assay, absorbance-based, actives from ultra-high-throughput screening (AID 540297); assay type: functional
T1 sequence (Q9GZU7 whole entry): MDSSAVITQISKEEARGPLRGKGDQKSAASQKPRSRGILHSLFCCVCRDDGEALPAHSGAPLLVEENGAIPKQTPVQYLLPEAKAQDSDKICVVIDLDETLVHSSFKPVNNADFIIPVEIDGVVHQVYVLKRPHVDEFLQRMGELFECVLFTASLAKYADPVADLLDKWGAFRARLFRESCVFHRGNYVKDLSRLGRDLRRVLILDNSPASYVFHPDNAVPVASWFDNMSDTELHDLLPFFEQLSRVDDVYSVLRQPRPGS

[6] = NIH-3T3 fibroblast cytotoxicity, dose response, cytotoxicity control, cell-based, fluorescence, Alamar Blue, secondary assay (AID 2327); assay type: functional;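 further: NIH-3T3 mouse fibroblasts cultured with fluconazole at 8 µg/mL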
[7] = C. albicans growth with fluconazole, confirmation, fluorescence, retest (AID 2467); assay type: functional, cell-based
Large T antigen = Large T antigen (Simian virus 40, UniProt P03070); assay type: functional, Betapolyomavirus macacae;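 further: Confirmatory-stage PubChem screen for compounds that inhibit SV40 T antigen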
Large T antigen, sequence (P03070 whole entry): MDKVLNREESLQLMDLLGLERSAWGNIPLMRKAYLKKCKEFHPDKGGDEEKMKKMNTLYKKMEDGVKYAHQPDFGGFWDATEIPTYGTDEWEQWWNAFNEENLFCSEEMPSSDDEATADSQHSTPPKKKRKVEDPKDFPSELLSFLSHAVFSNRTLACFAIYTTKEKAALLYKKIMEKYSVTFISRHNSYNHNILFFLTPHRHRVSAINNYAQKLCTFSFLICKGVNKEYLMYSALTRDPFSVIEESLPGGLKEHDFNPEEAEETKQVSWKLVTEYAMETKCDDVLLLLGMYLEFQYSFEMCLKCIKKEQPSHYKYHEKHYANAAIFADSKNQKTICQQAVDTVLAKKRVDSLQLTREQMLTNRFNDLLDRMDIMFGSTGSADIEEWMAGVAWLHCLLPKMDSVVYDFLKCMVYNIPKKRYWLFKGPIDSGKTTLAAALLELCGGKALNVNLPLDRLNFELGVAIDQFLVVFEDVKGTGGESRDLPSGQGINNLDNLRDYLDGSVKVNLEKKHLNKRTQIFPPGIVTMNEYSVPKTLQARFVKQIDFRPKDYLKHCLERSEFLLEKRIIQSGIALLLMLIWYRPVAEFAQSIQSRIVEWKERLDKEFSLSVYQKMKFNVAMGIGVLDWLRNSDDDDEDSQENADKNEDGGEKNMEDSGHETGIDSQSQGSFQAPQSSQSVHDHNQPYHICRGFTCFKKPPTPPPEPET

[8] = target: T2, Rac GTPase-activating protein 1 (Homo sapiens, UniProt Q9H0H5); test: MgcRacGAP GTPase-activating activity inhibitors, confirmation, biochemical, ADP Hunter fluorescence, primary and confirmatory (AID 624330); assay type: functional
T2 sequence (Q9H0H5 whole entry): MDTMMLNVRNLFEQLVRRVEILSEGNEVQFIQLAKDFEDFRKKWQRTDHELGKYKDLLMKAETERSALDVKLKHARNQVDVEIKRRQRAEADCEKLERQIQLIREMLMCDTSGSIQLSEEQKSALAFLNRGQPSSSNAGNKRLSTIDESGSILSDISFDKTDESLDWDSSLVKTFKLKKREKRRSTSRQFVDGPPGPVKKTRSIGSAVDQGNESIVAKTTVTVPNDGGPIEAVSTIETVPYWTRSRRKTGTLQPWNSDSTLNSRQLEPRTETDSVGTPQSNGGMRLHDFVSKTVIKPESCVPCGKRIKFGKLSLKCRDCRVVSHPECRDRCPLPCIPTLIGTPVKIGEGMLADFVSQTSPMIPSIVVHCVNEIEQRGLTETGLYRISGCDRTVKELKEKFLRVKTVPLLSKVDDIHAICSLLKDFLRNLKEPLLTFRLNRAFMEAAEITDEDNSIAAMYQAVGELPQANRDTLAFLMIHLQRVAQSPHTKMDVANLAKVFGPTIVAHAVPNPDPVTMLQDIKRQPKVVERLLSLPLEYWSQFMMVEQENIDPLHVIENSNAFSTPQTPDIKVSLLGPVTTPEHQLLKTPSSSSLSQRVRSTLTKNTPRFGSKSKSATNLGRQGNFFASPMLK

[9] = inhibitors of intracellular T. cruzi replication, confirmation, NIH3T3 host cells, beta-gal luminescence (AID 2044); assay type: functional, cell-based;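 further: intracellular parasites grown in NIH/3T3 mouse fibroblasts as host cells; luminescent beta-galactosidase reporter signal from transgenic T. cruzi replicating inside host cells; inhibitors lower the luminescence signal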
[10] = cytotoxicity toward NIH3T3 fibroblasts, dose response, counter-screen, cell-based, ATP luminescence, mouse fibroblasts (AID 2010); assay type: functional;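 further: cells exposed to compound for about 90 hours before reading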
[11] = test system: Streptococcus sp. 'group A'; test: growth inhibition of control SK(-) GAS strain, dose response, counter-screen for streptokinase expression inhibitor project, luminescence, kanamycin, BacTiterGlo, confirmation (AID 1900); assay type: functional, organism-based; details: read-out: EC50
Streptococcus = test: Group A Streptococcus viability loss, dose response, counter-screen for streptokinase expression inhibitor project, luminescence, BacTiterGlo (AID 1915); assay type: functional, organism-based;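 further: potency for reduction of bacterial viability or growth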
[12] = inhibitors of SNCA 5'UTR-driven reporter translation, confirmation, H4 neuroglioma cells, luminescence (AID 1988); assay type: functional, cell-based
[13] = Shn3 3'UTR reporter inhibitors, dose response, cell-based, Clone20 osteoblasts, firefly luciferase, cherry-picked (AID 624132); assay type: functional;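 further: firefly luciferase luminescence from reporter carrying the Shn3 3'UTR in osteoblasts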
[14] = Luminescence Cell-Based Dose Response HTS to Identify Inhibitors of 5'UTR Stem-Loop Driven Prion Protein mRNA Translation in H4 Neuroglioblastoma Cells. [Related pubchem assays: 1827 (Project Summary), 1813 (Primary HTS)]; assay type: functional
[15] = inhibitors of firefly luciferase expression or activity, dose response, H4 neuroglioma cells, luminescence (AID 1990); assay type: functional, cell-based
[16] = target: T3, Microphthalmia-associated transcription factor (Homo sapiens, UniProt O75030); test: TRPM1 promoter luciferase signal decrease, dose response, MITF inhibitor project, cell-based, SK-MEL-5, cherry-picked, set 3 (AID 493073); assay type: functional
T3 sequence (O75030 whole entry): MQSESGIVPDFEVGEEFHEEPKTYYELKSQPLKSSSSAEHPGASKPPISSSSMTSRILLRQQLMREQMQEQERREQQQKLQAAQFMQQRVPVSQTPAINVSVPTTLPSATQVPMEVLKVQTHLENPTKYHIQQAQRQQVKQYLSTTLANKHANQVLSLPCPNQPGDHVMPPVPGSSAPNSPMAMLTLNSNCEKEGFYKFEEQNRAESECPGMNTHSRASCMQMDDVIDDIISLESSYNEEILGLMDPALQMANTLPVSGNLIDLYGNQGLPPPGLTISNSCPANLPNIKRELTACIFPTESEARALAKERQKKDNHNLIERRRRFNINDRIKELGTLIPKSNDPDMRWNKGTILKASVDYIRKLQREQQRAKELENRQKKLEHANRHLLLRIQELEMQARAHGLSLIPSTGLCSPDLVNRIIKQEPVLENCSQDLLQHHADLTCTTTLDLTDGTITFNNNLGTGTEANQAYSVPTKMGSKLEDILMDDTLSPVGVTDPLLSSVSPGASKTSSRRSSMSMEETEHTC

[17] = inhibitors of HIV Env-driven cell fusion, dose response, cherry-pick (AID 652057); assay type: functional, cell-based

Eukaryotic translation initiation factor 4E, sequence (P63073 whole entry): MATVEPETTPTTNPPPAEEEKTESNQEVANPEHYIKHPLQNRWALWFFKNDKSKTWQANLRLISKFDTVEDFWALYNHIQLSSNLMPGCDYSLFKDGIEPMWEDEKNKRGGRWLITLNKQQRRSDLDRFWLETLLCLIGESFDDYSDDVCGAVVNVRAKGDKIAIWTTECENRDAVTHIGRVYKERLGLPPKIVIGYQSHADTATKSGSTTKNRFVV

CCOC(=O)c1c(-c2cccc([N+](=O)[O-])c2)csc1NC(=O)CCCOc1ccccc1
IC50 [1]: > 64 µM (inactive)

CCN1CCN(Cc2nc3c(c(=O)[nH]c(=O)n3C)n2Cc2ccccc2Cl)CC1
EC50 [2]: > 112 µM (not active)
EC50 [3]: 18.6 µM (active)

CCCOC(=O)c1ccc(OCC(O)CN2CCN(C(=O)c3ccccc3)CC2)cc1 (centres undefined)
IC50 [1]: > 64 µM (inactive)

COc1ccc(NC(=O)c2cnn(-c3ccccc3)c2C)cc1
EC50 [2]: 16.6 µM (active)
EC50 [3]: 6.03 µM (active)

COC(=O)[C@@]1(Cc2ccccc2)[C@H]2c3cc(C(=O)N4CCCC4)n(CCSCCO)c3C[C@H]2CN1C(=O)c1ccccc1
IC50 [4]: 1.87 µM (not active)

COc1cnn(C2CCCCC2)c(=O)c1O
IC50 (cells): 33.5 µM (active)

COc1cc(NC(=O)c2ccccc2)c(OC)cc1NC(=O)Cc1cccs1
IC50 [1]: 50 µM (inactive)
IC50 [5]: 3.86 µM (active)

COc1ccccc1NC(=O)c1cc2n(n1)C(C(F)(F)F)CC(c1ccc3c(c1)OCO3)N2 (centres undefined)
EC50 [2]: > 112 µM (not active)
EC50 [3]: > 112 µM (not active)

CC1CCCCN1S(=O)(=O)c1ccc(NC(=O)c2cccc(-n3cnnn3)c2)cc1 (centres undefined)
EC50 [6]: > 150 µM (inactive)

Cc1ccc(S(=O)(=O)CC(C)N2CCOCC2)c(S(=O)(=O)CC(C)N2CCOCC2)c1 (centres undefined)
EC50 [7]: 6.26 µM (active)
EC50 [6]: > 160 µM (inactive)

Cc1ccc(OC(S)=Nc2ccc(O)cc2)cc1
IC50 (Large T antigen): 13 µM (active)
IC50 [8]: 31.6 µM (active)

CCCCOC(=O)c1ccc(OC(=O)N2CCOCC2)cc1
EC50 [2]: > 112 µM (not active)
EC50 [3]: > 112 µM (not active)

COc1ccc(C(=O)Nc2ccccc2C(N)=O)cc1
IC50 [1]: > 64 µM (inactive)

COc1cc2c(cc1OC)-c1cc(Nc3cccc(C)c3)nc(=O)n1CC2
EC50 [2]: > 112 µM (not active)
EC50 [3]: 4.03 µM (active)

CCOC(=O)C1CCN(C(c2ccccn2)c2c(C)[nH]c3ccccc23)CC1 (centres undefined)
EC50 [2]: > 112 µM (not active)
EC50 [3]: 16.5 µM (active)

O=C1/C(=C\c2ccc(O)c(O)c2)N=C2CCCCCN12
IC50 (Large T antigen): 6.68 µM (active)
IC50 [8]: 17.4 µM (active)

O=[N+]([O-])c1ccc(CN2CCN(c3ccc(Cl)cc3)CC2)o1
EC50 [9]: 0.758 µM (active)
IC50 (cells): < 0.1 µM (active)
EC50 [10]: > 60 µM (not active)

O=C(Nc1ccc2c(c1)OCO2)Nc1ccccc1F
EC50 [2]: 1.77 µM (active)
EC50 [3]: 3.42 µM (active)

O=C(c1ccc([N+](=O)[O-])cc1)c1cc2ccc(O)cc2oc1=O
IC50 [5]: 10.8 µM (active)

Cc1ccc2nc(N3C(=O)C(O)=C(C(=O)c4cc5ccccc5o4)C3c3cccs3)sc2c1 (centres undefined)
IC50 [4]: 2.37 µM (active)
EC50 [11]: 1.39 µM (active)
EC50 (Streptococcus): 7.6 µM (active)

CCOC(=O)c1cc2cc(OC)ccc2nc1C
EC50 [2]: > 112 µM (not active)
EC50 [3]: > 112 µM (not active)

C[C@@H](O)C1NC(=O)[C@H](CCCCN)NC(=O)c2cc([N+](=O)[O-])cc(I)c2NCCC[C@@H](C(N)=O)NC1=O (some centres undefined)
IC50 [1]: > 64 µM (inactive)

O=C(CCS(=O)(=O)c1cccc2nsnc12)NCc1ccccc1Cl
IC50 [1]: > 64 µM (inactive)

CC(C)c1cc(C(=O)Nc2cccc(Cl)c2)no1
IC50 [1]: > 64 µM (inactive)

COc1ccc2c(c1OC)C(=O)N1c3ccccc3C(=O)N(c3ccccc3F)C21 (centres undefined)
EC50 [12]: 12 µM (active)
AC50 [13]: 11.6 µM (active)
EC50 [14]: 13.1 µM (active)
EC50 [15]: > 120 µM (not active)

COc1ccc2[nH]c(=O)c(CN(CCN3CCCC3)C(=O)Nc3ccccc3Cl)cc2c1
IC50 [1]: > 64 µM (inactive)

CCc1n[nH]c(SCC(=O)Nc2ccc(N(C)C)cc2)n1
IC50 (Large T antigen): 15.5 µM (active)

CCCCC(=O)Nc1ccc2oc(-c3ccncc3)nc2c1
IC50 [1]: > 64 µM (inactive)

COc1cc(Cn2nnc3ccccc32)ccc1O
IC50 (Large T antigen): 7.55 µM (active)

O=C1NC(=O)C(=Cc2ccc(-c3ccc(Cl)cc3)o2)C(=O)N1
AC50 [16]: 9.2 µM (active)
IC50 (cells): > 50 µM (active)

CC(=O)Oc1c(C(=O)c2nnc(C)o2)c(=O)n(Cc2ccccc2)c2ccccc12
AC50 [16]: 6.98 µM (active)

O=C(CCS(=O)(=O)c1ccc(Br)cc1)NCc1ccc(F)cc1
IC50 [5]: 7.9 µM (active)

CC(C)(C)NC(=O)CCN(/N=C/c1ccc([N+](=O)[O-])o1)C1=NS(=O)(=O)c2ccccc21
AC50 [16]: 7.18 µM (active)

Cc1ccc(S(=O)(=O)Nc2ccc3c(c2)CC(=O)N([C@@H](C)CO)C[C@H](C)[C@@H](CN(C)Cc2ccc(-c4ccccc4)cc2)O3)cc1
AC50 [17]: 20.2 µM (active)

COc1ccc(C(=O)NC(=O)Nc2cc(C)ccn2)cc1
EC50 [12]: 0.367 µM (active)
EC50 [14]: 0.533 µM (active)
AC50 [16]: 4.96 µM (active)
EC50 [15]: 1.67 µM (active)

O=C1c2ccccc2C(=O)N1/N=C/c1ccc(O)c(O)c1O
IC50 [4]: 2.28 µM (active)

CCn1c(C)nc2cc(C(=O)N/N=C/c3ccc(OC)c(O)c3)ccc21
IC50 (Large T antigen): 4.76 µM (active)
IC50 [8]: 80 µM (active)

COc1cc(/C=N/NC2=NC(=O)C(CC(=O)O)S2)ccc1OCc1ccc(Cl)cc1 (centres undefined)
IC50 [5]: 12.4 µM (active)

O=C(Oc1ccc(/C=N/O)cc1)c1ccccc1Cl
IC50 (cells): 22.6 µM (active)

CSc1ccc(/C=N/NC(=O)c2ccc(C)c(C)c2)cc1
IC50 [5]: 9.17 µM (active)
